# “And” between values parts separate entries of the source, which are not always exact repeats. Equal entries are not always repeated.
# Tests used:
# Type in all cases: in vivo, human
# [1] = tested on: patients with prolonged moderate to severe migraine; assay: Further expanded study (N=40): Depacon vs DHE preceded by metoclopramide, prolonged moderate to severe migraine (Example 3); conditions: for Headache Severity (group value, four grade rating) / Number of Patients Who Reported Nausea / Number of Patients Who Reported Phonophobia / Number of Patients Who Reported Photophobia / Responder Rate / Symptom Free patients (no headache or associated symptomatology), % / Symptom Free patients (no headache or associated symptomatology), number: N = 20 per group
# Source text: This Example describes a further expanded study and analysis of the effectiveness of intravenous VPA for the treatment of acute migraine headache of significant duration. Patient data from the study described in Examples 1 and 2 have been incorporated and further analyzed in addition to new patient data. • Design and Methods. Participants (N=40) were from age 14 to 74 and were established patients of the Western New England Headache Clinic. Patients called to report the pressure of prolonged moderate to severe migraine. They had no evidence of conditions other than migraine to cause headache and were medically stable. […] Patients received a neurological and general physical examination and filled out a four grade baseline headache rating from developed by Western New England Headache Clinic (see Table 2). The patients then received either 500 mg Depacon™ over 15–30 minutes administered in 100 ccs D5W, or 1 mg DHE intramuscularly preceded by 10 mg metoclopramide intramuscularly. Headache severity and associated symptomatology were rated 1, 2, and 4 hours. Results. A total of 40 patients were randomized, 20 in the Depacon™ group and 20 in the DHE group. Table VII summarizes the number of patients in each group by severity of headache (moderate or severe), demographic data and medication assignment.
# [2] = tested on: patients with moderate to severe headaches of 24–72 hours duration; assay: Expanded study: IV VPA vs DHE with metoclopramide IM, acute migraine headache (Example 2); conditions: for % Headache Relief: 10 patients per group; for Headache Severity / Nausea/vomiting / Phonophobia / Photophobia: individual patient; for Headache Severity: grade 0-3; for Nausea/vomiting / Phonophobia / Photophobia: presence
# Experimental: This Example describes an expanded study and analysis of the effectiveness of intravenous VPA for the treatment of acute migraine headache of significant duration. Patient data from the pilot study described in Example 1 has been incorporated and further analyzed in addition to new patient data. • Design. […] Patients alternately received intravenous VPA 500 mgs over 15–30 minutes, or dihydroergotamine (“DHE”) 1 mg with metoclopramide 10 mgs intramuscularly (“IM”). Age ranged from 22 to 73 years. Patients rated severity of headache, presence or absence of nausea, photophobia, and phonophobia at 1, 2 and 4 hrs. Table V and Table VI. • Results. In the 10 patients receiving DHE and metoclopramide, 40% had headache relief at 1 hour, 50% at 2 hours, 60% at 4 hours. The percent with nausea at 0, 1, 2, and 4 hours was 60%, 10%, 20%, 30% respectively, photophobia at 0, 1, 2, and 4 hours 100%, 50%, 50%, 40% respectively, phonophobia at 0, 1, 2, and 4 hours 80%, 30%, 50%, 40% respectively. In the 10 patients receiving i.v. VPA, 60% had headache relief at 1 hour, 70% at 2 hours, 70% at 4 hours, the percent with nausea at 0, 1, 2, and 4 hours was 70%, 30% 30%, 20% respectively, photophobia at 0, 1, 2, and 4 hours was 100%, 40%, 40%, 30% respectively, and phonophobia at 0, 1, 2, and 4 hours was 90%, 40%, 40%, 30% respectively. Table VII. • Conclusions. The results of the present study indicate that intravenous VPA is at least as efficacious as DHE for abortive treatment of acute migraine. Accordingly, intravenous VPA offers a treatment option for migraine headache patients who have recently used a triptan or DHE without the risk of drug-drug interaction or cardiovascular complications.
# [3] = tested on: patients with moderate to severe migraine headaches of duration of 24 to 96 hrs; assay: Pilot study: IV valproate vs IM DHE with metoclopramide for abortive treatment of acute migraine headache (Example 1); conditions: individual patient, grade 0-3; 24-h
smiles,measurement,setting,value
"CN1C[C@H](C(=O)N[C@]2(C)O[C@@]3(O)[C@@H]4CCCN4C(=O)[C@H](Cc4ccccc4)N3C2=O)C[C@@H]2c3cccc4[nH]cc(c34)C[C@H]21 [DHE, dihydroergotamine]",% of Patients Who Reported Nausea,[1]; 1 hour,42%
same,% of Patients Who Reported Phonophobia,[1]; 1 hour,67%
same,% of Patients Who Reported Photophobia,[1]; 1 hour,75%
same,% of Patients Who Reported Nausea,[1]; 2 hours,50%
same,% of Patients Who Reported Phonophobia,[1]; 2 hours,67%
same,% of Patients Who Reported Photophobia,[1]; 2 hours,65%
same,% of Patients Who Reported Nausea,[1]; 4 hours,50%
same,% of Patients Who Reported Phonophobia,[1]; 4 hours,61%
same,% of Patients Who Reported Photophobia,[1]; 4 hours,55%
same,% of Patients Who Reported Nausea,[1]; Baseline,(60%)
same,% of Patients Who Reported Phonophobia,[1]; Baseline,90%
same,% of Patients Who Reported Photophobia,[1]; Baseline,100%
same,"Headache Severity (group value, four grade rating)",[1]; 1 hour,1.5
same,Number of Patients Who Reported Nausea,[1]; 1 hour,5
same,Number of Patients Who Reported Phonophobia,[1]; 1 hour,12
same,Number of Patients Who Reported Photophobia,[1]; 1 hour,15
same,Responder Rate,[1]; 1 hour,45%
same,"Headache Severity (group value, four grade rating)",[1]; 2 hours,1.4
same,Number of Patients Who Reported Nausea,[1]; 2 hours,6
same,Number of Patients Who Reported Phonophobia,[1]; 2 hours,12
same,Number of Patients Who Reported Photophobia,[1]; 2 hours,13
same,Responder Rate,[1]; 2 hours,50%
same,"Headache Severity (group value, four grade rating)",[1]; 4 hours,1.2
same,Number of Patients Who Reported Nausea,[1]; 4 hours,6
same,Number of Patients Who Reported Phonophobia,[1]; 4 hours,11
same,Number of Patients Who Reported Photophobia,[1]; 4 hours,11
same,Responder Rate,[1]; 4 hours,60%
same,"Headache Severity (group value, four grade rating)",[1]; Baseline,2.6
same,Number of Patients Who Reported Nausea,[1]; Baseline,DHE 12
same,Number of Patients Who Reported Phonophobia,[1]; Baseline,18
same,Number of Patients Who Reported Photophobia,[1]; Baseline,20
same,"Symptom Free patients (no headache or associated symptomatology), %",[1]; at 1 hour,15%
same,"Symptom Free patients (no headache or associated symptomatology), number",[1]; at 1 hour,3
same,"Symptom Free patients (no headache or associated symptomatology), %",[1]; at 2 hours,25%
same,"Symptom Free patients (no headache or associated symptomatology), number",[1]; at 2 hours,5
same,"Symptom Free patients (no headache or associated symptomatology), %",[1]; at 4 hours,30%
same,"Symptom Free patients (no headache or associated symptomatology), number",[1]; at 4 hours,6
same,% experiencing Nausea,[2]; 0-h (baseline),60%
same,% experiencing Phonophobia,[2]; 0-h (baseline),80%
same,% experiencing Photophobia,[2]; 0-h (baseline),100%
same,% experiencing Nausea,[2]; 1-h,10%
same,% experiencing Phonophobia,[2]; 1-h,30%
same,% experiencing Photophobia,[2]; 1-h,50%
same,% experiencing Nausea,[2]; 2-h,20%
same,% experiencing Phonophobia,[2]; 2-h,50%
same,% experiencing Photophobia,[2]; 2-h,50%
same,% experiencing Nausea,[2]; 4-h,30%
same,% experiencing Phonophobia,[2]; 4-h,40%
same,% experiencing Photophobia,[2]; 4-h,40%
same,% Headache Relief,[2]; 1-h,40%
same,% Headache Relief,[2]; 2-h,50%
same,% Headache Relief,[2]; 4-h,60%
same,% Headache Relief,[2]; 24-h,90%
same,% experiencing Nausea,[2]; 24-h,10%
same,% experiencing Phonophobia,[2]; 24-h,10%
same,Headache Severity,"[2]; 0-h (baseline), Depacon IV 500 mg or DHE 1 mg IM + Reglan 10 mg IM",2 (4×) and 3 (6×)
same,Headache Severity,[2]; 1-h,3 (2×) and 0 (4×) and 2 (4×)
same,Headache Severity,[2]; 2-h,3 (2×) and 0 (4×) and 2 (3×) and 1
same,Headache Severity,[2]; 4-h,3 (2×) and 1 (2×) and 0 (4×) and 2 (2×)
same,Headache Severity,[2]; 24-h,1 (6×) and 2 and 0 (3×)
same,Nausea/vomiting,[2]; 0-h (baseline),0
same,Phonophobia,[2]; 0-h (baseline),0
same,Nausea/vomiting,[2]; 1-h,0
same,Phonophobia,[2]; 1-h,0
same,Photophobia,[2]; 1-h,0
same,Nausea/vomiting,[2]; 2-h,0
same,Phonophobia,[2]; 2-h,0
same,Photophobia,[2]; 2-h,0
same,Nausea/vomiting,[2]; 4-h,0
same,Phonophobia,[2]; 4-h,0
same,Photophobia,[2]; 4-h,0
same,Nausea/vomiting,[2]; 24-h,0
same,Phonophobia,[2]; 24-h,0
same,Headache Severity,[3],1 (2×) and 0 and 2
